From the supplement of paper PMC10307832

Assays:
Experiment in all cases: relative viability (nuclei count vs DMSO), 5 days (fraction); higher = more cells survive
[1] = compound: CC1=CC(=CC=C1)NC2=NC(=CS2)C3=CC=NC=C3 + C[C@@H](Oc1cc(-c2cnn(C3CCNCC3)c2)cnc1N)c1c(Cl)ccc(F)c1Cl [Crizotinib] (partner 1 µM)
In short: (§1)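 A single step with final 0.05% Triton X-100, 1% formaldehyde and 1 ug/ml Hoechst fixed the cells and stained nuclei 5 days after treatment. Lung cancer cell lines in 1536-well plates had been treated by pin tool the day after seeding with one drug alone or a fixed anchor-drug dose plus five library-drug doses (not always all listed) in √10 steps, and nuclei were counted on 4× images. Relative viability is the ratio of nuclei in treated wells to nuclei in vehicle wells, taken as the median of duplicate plates.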

[2] = compound: Cc1ccc(NC(=O)c2ccc(CN3CCN(C)CC3)cc2)cc1Nc1nc(-c2cccnc2)cs1 [Masitinib] + CC(C)C[C@H](NC(=O)[C@H](Cc1ccccc1)NC(=O)c1cnccn1)B(O)O [Bortezomib] (partner 0.002 µM)
In short: as §1

[3] = compound: CC1=CC(=CC=C1)NC2=NC(=CS2)C3=CC=NC=C3 + CC(=O)c1c(C)c2cnc(Nc3ccc(N4CCNCC4)cn3)nc2n(C2CCCC2)c1=O [Palbociclib] (partner 0.5 µM)
In short: as §1

[4] = compound: Cc1ccc(NC(=O)c2ccc(CN3CCN(C)CC3)cc2)cc1Nc1nc(-c2cccnc2)cs1 [Masitinib] + O=C(CCCCCCC(=O)Nc1ccccc1)NO [Vorinostat] (partner 1 µM)
In short: as §1

| Cell Line | relative viability ([1]; first compound 0.08 µM) | relative viability ([1]; first compound 0.253 µM) | relative viability ([1]; first compound 0.8 µM) | relative viability ([1]; first compound 2.53 µM) | relative viability ([1]; first compound 8 µM) | relative viability ([2]; first compound 0.01 µM) | relative viability ([2]; first compound 0.03162 µM) | relative viability ([2]; first compound 0.1 µM) | relative viability ([2]; first compound 0.3162 µM) | relative viability ([2]; first compound 1 µM) | relative viability ([3]; first compound 0.08 µM) | relative viability ([3]; first compound 0.253 µM) | relative viability ([3]; first compound 0.8 µM) | relative viability ([3]; first compound 2.53 µM) | relative viability ([3]; first compound 8 µM) | relative viability ([4]; first compound 0.01 µM) | relative viability ([4]; first compound 0.03162 µM) | relative viability ([4]; first compound 0.1 µM) | relative viability ([4]; first compound 0.3162 µM) | relative viability ([4]; first compound 1 µM) |
| --- | --- | --- | --- | --- | --- | --- | --- | --- | --- | --- | --- | --- | --- | --- | --- | --- | --- | --- | --- | --- |
| NCI-H2087 | 0.895 | 1.04 | 0.847 | 0.67 | 0.838 | 0.544 | 0.741 | 0.756 | 0.958 | 0.779 | 0.186 | 0.245 | 0.227 | 0.238 | 0.221 | 0.532 | 0.828 | 0.672 | 0.72 | 0.746 |
| NCI-H2126 | 0.975 | 1.01 | 1 | 0.983 | 0.846 | 1.05 | 1.17 | 1.1 | 1.03 | 1.11 | 0.336 | 0.38 | 0.346 | 0.321 | 0.339 | 0.736 | 0.764 | 0.8 | 0.798 | 0.79 |
| NCI-H2228 | 0.318 | 0.334 | 0.4 | 0.457 | 0.352 | 1.07 | 1.68 | 1.05 | 1.25 | 0.975 | 0.655 | 0.797 | 0.74 | 0.749 | 0.615 | 0.604 | 0.59 | 0.693 | 0.593 | 0.665 |
| NCI-H2347 | 0.544 | 0.688 | 0.468 | 0.789 | 0.777 | 0.829 | 1.02 | 0.938 | 0.899 | 0.903 | 0.392 | 0.417 | 0.413 | 0.444 | 0.436 | 0.601 | 0.543 | 0.647 | 0.651 | 0.624 |
| NCI-H2405 | 0.684 | 0.774 | 0.615 | 0.874 | 0.808 | 0.929 | 0.878 | 0.879 | 0.944 | 0.948 | 0.49 | 0.489 | 0.488 |  | 0.498 | 0.791 | 0.937 | 0.858 | 0.938 | 0.909 |
| NCI-H3122 | 0.266 | 0.31 | 0.334 | 0.332 | 0.47 | 1.09 | 0.997 | 1.1 | 1.03 | 0.984 | 0.185 | 0.193 | 0.384 | 0.253 | 0.193 | 0.844 | 0.982 | 1.15 | 1.14 | 1.05 |
| PC-3 [JPC-3] | 0.875 | 0.913 | 0.852 | 0.904 | 0.799 | 0.833 | 0.936 | 0.784 | 0.878 | 0.841 | 0.542 |  | 0.503 | 0.477 | 0.481 | 0.753 | 0.554 | 0.779 | 0.748 | 0.667 |
| PC-14 | 0.87 | 0.881 | 0.821 | 0.951 | 0.695 | 0.786 | 0.878 | 0.857 | 0.84 | 0.846 | 0.502 | 0.484 | 0.553 | 0.515 | 0.394 | 0.716 | 0.79 | 0.767 | 0.691 | 0.865 |
| RERF-LC-KJ | 0.741 | 0.705 | 0.556 | 0.59 | 0.512 | 0.939 | 1 | 1.07 | 1.09 | 1 | 1 | 0.998 | 0.743 | 0.787 | 0.618 | 0.587 | 0.783 | 0.752 | 0.541 | 0.646 |
| SK-LU-1 | 0.751 | 1 | 0.636 | 0.912 | 0.938 | 1.2 | 1.13 | 1.28 | 1.24 | 0.899 | 0.405 | 0.404 | 0.293 | 0.479 | 0.37 | 0.779 | 0.844 | 0.744 | 0.926 | 0.774 |
| SW 1573 | 0.671 | 0.77 | 0.864 | 1.01 | 0.783 | 1.08 | 0.979 | 1.06 | 0.894 | 1 | 0.443 | 0.364 | 0.43 | 0.426 | 0.257 | 0.645 | 0.763 | 0.929 | 0.968 | 0.973 |
